# Several values for one entry are separate records, joined by “and”; a condition that tells them apart may be missing. Identical values can stand only once. Results filed as inconclusive are left out.
# System: nude mice, HT29 intrarenal xenograft, tumor weight T/C
# Experiment: NCI In Vivo Anticancer Drug Screen. Data for tumor model HT29;CX-1 Human Adenocarcinoma (MER+) (intrarenal inoculation) in NU/NU Swiss (nude) mice
# Details: endpoint: mean tumor weight change, higher = larger tumour
# Experimental: The antitumor activity of compounds was measured in mice bearing transplantable tumors. Survival or tumor size were measured and the results are expressed as the measurement made in the treated group (T) divided by the measurement made in the vehicle treated control group (C). The tumor model used in this assay is HT29;CX-1 Human Adenocarcinoma (MER+) (intrarenal inoculation) in NU/NU Swiss (nude) mice
# [1] = dose: 300.0 mg/kg/injection, schedule: Q04DX004 (sc), vehicle: Klucel (hydroxypropylcellulose) (HPC)
# [2] = dose: 600.0 mg/kg/injection, schedule: Q04DX004 (sc), vehicle: Klucel (hydroxypropylcellulose) (HPC)
# [3] = dose: 1200.0 mg/kg/injection, schedule: Q04DX004 (sc), vehicle: Klucel (hydroxypropylcellulose) (HPC)
# [4] = dose: 2400.0 mg/kg/injection, schedule: Q04DX004 (sc), vehicle: Klucel (hydroxypropylcellulose) (HPC)
# [5] = dose: 100.0 mg/kg/injection, schedule: Q04DX004 (sc), vehicle: saline with Tween-80
# [6] = dose: 200.0 mg/kg/injection, schedule: Q04DX004 (sc), vehicle: saline with Tween-80
# [7] = dose: 50.0 mg/kg/injection, schedule: Q01DX010 (sc), vehicle: saline
# [8] = dose: 4.0 mg/kg/injection, schedule: Q04DX004 (sc), vehicle: saline
# [9] = dose: 150.0 mg/kg/injection, schedule: Q04DX004 (sc), vehicle: saline with Tween-80
# [10] = dose: 300.0 mg/kg/injection, schedule: Q04DX004 (sc), vehicle: saline with Tween-80
# [11] = dose: 600.0 mg/kg/injection, schedule: Q04DX004 (sc), vehicle: saline with Tween-80
# [12] = dose: 200.0 mg/kg/injection, schedule: Q01DX010 (sc), vehicle: saline
# [13] = dose: 100.0 mg/kg/injection, schedule: Q01DX010 (sc), vehicle: saline
# [14] = dose: 12.5 mg/kg/injection, schedule: Q01DX010 (sc), vehicle: saline
# [15] = dose: 25.0 mg/kg/injection, schedule: Q01DX010 (sc), vehicle: saline
smiles,measurement,setting,value
O=c1ssc(=Nc2ccccc2)n1-c1ccccc1,T/C,[1],88 % of control
same,T/C,[2],75 % of control
same,T/C,[3],98 % of control
same,T/C,[4],189 % of control
O=C(O[Si](Cc1ccccc1)(Cc1ccccc1)Cc1ccccc1)N(CCCl)CCCl,T/C,[5],119 % of control
same,T/C,[6],121 % of control
CCCC(=O)OCc1cc(=O)n(C)c2c3c4c(cc12)c(C)cc(=O)n4CO3,T/C,"dose: 200.0 mg/kg/injection, schedule: Q01DX010 (sc), vehicle: Klucel (hydroxypropylcellulose) (HPC)",71 % of control
O=P1(N(CCCl)CCCl)NCCCO1 (stereo not drawn),T/C,"dose: 40.0 mg/kg/injection, schedule: Q04DX004 (ip), vehicle: saline",75 % of control
same,T/C,[7],58 % of control
same,T/C,"dose: 60.0 mg/kg/injection, schedule: Q04DX004 (ip), vehicle: saline",53 % of control
same,T/C,"dose: 90.0 mg/kg/injection, schedule: Q04DX004 (ip), vehicle: saline",26 % of control
O=C1C(NCC(O)CO)=C(N2CC2)C(=O)C(NCC(O)CO)=C1N1CC1 (stereo not drawn),T/C,[8],86 % of control
same,T/C,"dose: 8.0 mg/kg/injection, schedule: Q04DX004 (sc), vehicle: saline",28 % of control
same,T/C,"dose: 16.0 mg/kg/injection, schedule: Q04DX004 (sc), vehicle: saline",25 % of control
Nc1nc(=S)c2[nH]cnc2[nH]1,T/C,"dose: 0.39 mg/kg/injection, schedule: Q01DX010 (sc), vehicle: Klucel (hydroxypropylcellulose) (HPC)",102 % of control
same,T/C,"dose: 0.78 mg/kg/injection, schedule: Q01DX010 (sc), vehicle: Klucel (hydroxypropylcellulose) (HPC)",91 % of control
O=C1NCC(Br)C(=O)N1 (stereo not drawn),T/C,[9],68 % of control
same,T/C,[10],50 % of control
same,T/C,[11],60 % of control
CC(=O)NCCCCCCNC(C)=O,T/C,[12],88 % of control
same,T/C,"dose: 800.0 mg/kg/injection, schedule: Q01DX010 (sc), vehicle: saline",95 % of control
same,T/C,"dose: 1600.0 mg/kg/injection, schedule: Q01DX010 (sc), vehicle: saline",97 % of control and 117 % of control
same,T/C,"dose: 3200.0 mg/kg/injection, schedule: Q01DX010 (sc), vehicle: saline",110 % of control
Oc1c(Cl)cc(C(c2cc(Cl)c(O)c(Cl)c2)C(c2cc(Cl)c(O)c(Cl)c2)c2cc(Cl)c(O)c(Cl)c2)cc1Cl,T/C,"dose: 450.0 mg/kg/injection, schedule: Q04DX004 (sc), vehicle: Klucel (hydroxypropylcellulose) (HPC)",104 % of control
same,T/C,"dose: 900.0 mg/kg/injection, schedule: Q04DX004 (sc), vehicle: Klucel (hydroxypropylcellulose) (HPC)",95 % of control
same,T/C,"dose: 1800.0 mg/kg/injection, schedule: Q04DX004 (sc), vehicle: Klucel (hydroxypropylcellulose) (HPC)",96 % of control
NC(C/[N+]([O-])=N/O)C(=O)O (stereo not drawn),T/C,[7],186 % of control
same,T/C,[13],53 % of control
CCCCCCCCSC1=C(Cl)C(=O)C(OC)=C(OC)C1=O,T/C,"dose: 18.0 mg/kg/injection, schedule: Q04DX004 (sc), vehicle: saline with Tween-80",96 % of control
same,T/C,"dose: 36.0 mg/kg/injection, schedule: Q04DX004 (sc), vehicle: saline with Tween-80",82 % of control
same,T/C,"dose: 72.0 mg/kg/injection, schedule: Q04DX004 (sc), vehicle: saline with Tween-80",118 % of control
same,T/C,"dose: 144.0 mg/kg/injection, schedule: Q04DX004 (sc), vehicle: saline with Tween-80",59 % of control
c1ccc([C@H]2CN3CCSC3=N2)cc1,T/C,"dose: 15.0 mg/kg/injection, schedule: Q04DX004 (sc), vehicle: saline",152 % of control
same,T/C,"dose: 30.0 mg/kg/injection, schedule: Q04DX004 (sc), vehicle: saline",114 % of control
O=C(Nc1ccccc1C(=O)O)c1cc([N+](=O)[O-])cc([N+](=O)[O-])c1,T/C,"dose: 50.0 mg/kg/injection, schedule: Q04DX004 (sc), vehicle: saline with Tween-80",91 % of control
same,T/C,[5],120 % of control
same,T/C,[6],119 % of control
O=C1CN(Cc2ccc3c(c2)OCO3)NO1,T/C,[9],92 % of control
same,T/C,[10],103 % of control
Cc1c2ccncc2c(C)c2c1[nH]c1ccccc12,T/C,[14],70 % of control
same,T/C,[15],47 % of control
C[Si](C)(C)OSc1ccccc1[N+](=O)[O-],T/C,[1],79 % of control
same,T/C,[2],61 % of control
same,T/C,[3],107 % of control
same,T/C,[4],93 % of control
Cc1c2c(ccc3ccccc32)c[n+]2ccccc12,T/C,"dose: 6.25 mg/kg/injection, schedule: Q01DX010 (sc), vehicle: saline",84 % of control
same,T/C,[14],82 % of control
NC(=O)c1cn(C2OC(CO)C(O)C2O)c2ncnc(N)c12 (stereo not drawn),T/C,"dose: 1.0 mg/kg/injection, schedule: Q01DX010 (sc), vehicle: saline",115 % of control
same,T/C,"dose: 2.0 mg/kg/injection, schedule: Q01DX010 (sc), vehicle: saline",94 % of control
COC1N(C2CC(O)C(CO)O2)C(=O)NC(=O)C1(F)Br (stereo not drawn),T/C,[15],28 % of control
COc1cc2cc(c1Cl)N(C)C(=O)CC(OC(=O)CC(C)C)C1(C)OC1C(C)C1CC(O)(NC(=O)O1)C(OC)/C=C/C=C(C)C2 (stereo not drawn),T/C,"dose: 125.0 micrograms/kg/injection, schedule: Q04DX004 (sc), vehicle: saline + alcohol",87 % of control and 99 % of control
same,T/C,"dose: 500.0 micrograms/kg/injection, schedule: Q04DX004 (sc), vehicle: saline + alcohol",60 % of control
C/C=C(\C)c1cc(=O)c2c(C)cc3c(c2o1)C(=O)c1c(O)c(C2CC(C)(N(C)C)C(O)C(C)O2)cc(C2CC(N(C)C)C(O)C(C)O2)c1C3=O (stereo not drawn),T/C,"dose: 0.5 mg/kg/injection, schedule: Q04DX004 (sc), vehicle: saline",78 % of control
same,T/C,"dose: 2.0 mg/kg/injection, schedule: Q04DX004 (sc), vehicle: saline",112 % of control
same,T/C,[8],82 % of control
same,T/C,"dose: 4.0 mg/kg/injection, schedule: Q04DX004 (sc), vehicle: suspension in saline",104 % of control
same,T/C,"dose: 8.0 mg/kg/injection, schedule: Q04DX004 (sc), vehicle: suspension in saline",64 % of control
same,T/C,"dose: 16.0 mg/kg/injection, schedule: Q04DX004 (sc), vehicle: suspension in saline",90 % of control
CCCCCCCCCCCCCCCC(=O)Nc1ccn(C2OC(CO)C(O)C2O)c(=O)n1 (stereo not drawn),T/C,"dose: 56.25 mg/kg/injection, schedule: Q04DX004 (sc), vehicle: water",114 % of control
COC1/C=C/O[C@@]2(C)Oc3c(C)c(O)c4c(O)c(cc(O)c4c3C2=O)NC(=O)/C(C)=C\C=C\[C@H](C)C(O)[C@@H](C)[C@@H](O)[C@@H](C)[C@H](OC(C)=O)[C@@H]1C (stereo partly drawn),T/C,"dose: 150.0 mg/kg/injection, schedule: Q04DX004 (sc), vehicle: suspension in saline",72 % of control
same,T/C,"dose: 300.0 mg/kg/injection, schedule: Q04DX004 (sc), vehicle: suspension in saline",69 % of control
COc1cc(Cc2nccc3cc(OC)c(OC)cc23)c(C(C)=O)c(OC)c1,T/C,"dose: 40.0 mg/kg/injection, schedule: Q01DX010 (sc), vehicle: saline",35 % of control
same,T/C,"dose: 80.0 mg/kg/injection, schedule: Q01DX010 (sc), vehicle: saline",50 % of control
same,T/C,"dose: 160.0 mg/kg/injection, schedule: Q01DX010 (sc), vehicle: saline",19 % of control
CCOC(=O)c1c[nH]c2oc(/C=N/N3CC(CN4CCOCC4)OC3=O)cc2c1=O (stereo not drawn),T/C,[7],69 % of control
same,T/C,[13],124 % of control
same,T/C,[12],86 % of control
CCOC(=O)C(N)C[S][Sn]([CH3])([CH3])[Cl] (stereo not drawn),T/C,"dose: 18.75 mg/kg/injection, schedule: Q04DX004 (sc), vehicle: saline",169 % of control
same,T/C,"dose: 75.0 mg/kg/injection, schedule: Q04DX004 (sc), vehicle: saline",72 % of control
C=Cc1cnc([N+](=O)[O-])n1C,T/C,"dose: 150.0 mg/kg/injection, schedule: Q04DX004 (sc), vehicle: Klucel (hydroxypropylcellulose) (HPC)",110 % of control
same,T/C,[1],108 % of control
COc1cccc2c1C(=O)c1c(O)c3c(c(O)c1C2=O)C[C@@](O)(C(=O)CO)C[C@@H]3OC1CC(N(C)C)C(O)C(C)O1 (stereo partly drawn),T/C,"dose: 1.0 mg/kg/injection, schedule: Q01DX010 (sc), vehicle: water",19 % of control
same,T/C,"dose: 2.0 mg/kg/injection, schedule: Q01DX010 (sc), vehicle: water",94 % of control
same,T/C,"dose: 4.0 mg/kg/injection, schedule: Q01DX010 (sc), vehicle: water",29 % of control
CN1C(=O)C(=Cc2ccc(O)cc2)C(=O)N(C)C1=O,T/C,[9],116 % of control
same,T/C,[10],101 % of control
same,T/C,[11],99 % of control
same,T/C,"dose: 1200.0 mg/kg/injection, schedule: Q04DX004 (sc), vehicle: saline with Tween-80",74 % of control
